Results taken from US20170260226A1, “3-NITROGEN OR SULPHUR SUBSTITUTED OESTRA-1,3,5(10),16-TETRAENE AKR1C3 INHIBITORS” (BAYER PHARMA AKTIENGESELLSCHAFT, priority 2014, published 2017).

Columns and labels:
AKR1C3 [1] = target: T1, AKR1C3 (Homo sapiens, UniProt P42330); assay: AKR1C3 enzyme inhibition assay (coumberone to coumberol fluorescence); format: biochemical; set-up: GST (cleaved yes); made in house; host or cells: E. coli; conditions: mean values; 10 μM NADPH, 0.3 μM coumberone, 3 h at room temperature
T1 sequence (P42330 1-323): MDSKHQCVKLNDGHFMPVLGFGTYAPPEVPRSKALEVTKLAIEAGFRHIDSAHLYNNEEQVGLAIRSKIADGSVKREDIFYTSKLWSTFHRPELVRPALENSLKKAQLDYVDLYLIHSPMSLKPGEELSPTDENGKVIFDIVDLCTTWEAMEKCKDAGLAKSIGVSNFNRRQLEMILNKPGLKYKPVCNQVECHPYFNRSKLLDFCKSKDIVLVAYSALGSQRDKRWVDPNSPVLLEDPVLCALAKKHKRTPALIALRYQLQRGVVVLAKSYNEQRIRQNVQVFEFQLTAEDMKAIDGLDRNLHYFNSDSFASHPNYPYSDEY
Experimental: The AKR1C3-inhibitory action of the substances of this invention was measured in the AKR1C3 assay described in the paragraphs which follow.
Essentially, the enzyme activity is measured by quantifying the coumberol formed from coumberone (Halim, M., Yee, D., J., and Sames, D., J. A., M. (2008). Chem Soc 130, 14123-14128 and Yee, D., J., Balsanek, V., Bauman, D., R., Penning, T., M., and Sames, D. (2006). Proc Natl Acad Sci USA, 103, 13304-13309). In this assay, the increase in the highly fluorescent coumberol can be determined by NADPH (nicotinamide adenine dinucleotide phosphate)-dependent reduction of the nonfluorescent coumberone by AKR1C3.
The enzyme used was recombinant human AKR1C3 (aldo-keto reductase family 1 member C3) (GenBank Accession No. NM_003739). This was expressed as the GST (glutathione S-transferase) fusion protein in E. coli and purified by means of glutathione-Sepharose affinity chromatography. The GST was removed by thrombin digestion with subsequent size exclusion chromatography (Dufort, I., Rheault, P., Huang, X., F., Soucy, P., and Luu-The, V. (1999). Endocrinology,140, 568-574).
For the assay, 40-50 nl of a 100-fold concentrated solution of the test substance in DMSO were pipetted into a black low-volume 384-well microtitre plate (Greiner Bio-One, Frickenhausen, Germany), 2-2.5 μl of a solution of AKR1C3 in assay buffer [50 mM potassium phosphate buffer pH 7, 1 mM DTT, 0.0022% (w/v) Pluronic F-127, 0.01% BSA (w/v) and protease inhibitor cocktail (complete, EDTA-free Protease Inhibitor Cocktail from Roche)] were added and the mixture was incubated for 20 min, in order to enable preliminary binding of the substances to the enzyme prior to the enzyme reaction. Then the enzyme reaction was started by adding 2-2.5 μl of a solution of NADPH and coumberone in assay buffer (final assay concentration was 10 μM NADPH and 0.3 μM coumberone) and the resulting mixture was incubated at room temperature for 3 h. Typical concentrations were depending on the linear range of the enzyme reaction during the reaction time about 1 nM. The reaction was stopped by adding 2 μl of a stop solution consisting of the AKR1C3 inhibitor EM-1404 to a final concentration of 1 μM. Subsequently, the fluorescence of coumberol was measured at 520 nm (excitation at 380 nm) with a suitable measuring instrument (Pherastar, BMG). […] The data were normalized (enzyme+coumberon substrate in assay buffer=0% inhibition; coumberone substrate only in assay buffer=100% inhibition). Substances were usually tested at 11 different concentrations on the same microtiter plate in a range between 96.8 pM to 20 μM (20 μM, 5.9 μM, 1.7 μM, 0.5 μM, 0.15 μM, 44 nM, 12.9 nM, 3.8 nM, 1.1 nM, 0.3 nM and 96.8 pM). The dilutions were carried out on a 100 fold concentrated solution by serial dilution in duplicates. From the obtained data IC50 values were calculated by a 4-parameter fit.

AKR1C3 [2] = target: T1, AKR1C3; assay: AKR1C3 inhibition in a cell-based system (HEK293 cells transfected with AKR1C3 expression plasmid, coumberon substrate); set-up: expressed in transfected cells; host or cells: HEK293 cells (ATCC); conditions: mean values; HEK293 cells transfected with AKR1C3, coumberon 6×10^−6M, 3 h; read-out: Cellular AKR1C3 inhibition IC50
Experimental: The inhibition of AKR1C3 by the substances described in this invention was measured in a cell-based assay using coumberon as the substrate for AKR1C3 (Halim, M., Yee, D., J., and Sames, D., J. (2008). Am Chem Soc, 130, 14123-14128 and Yee, D., J., Balsanek, V., Bauman, D., R., Penning, T., M., and Sames, D. (2006), Proc Natl Acad Sci USA 103, 13304-13309) (cf. Example 48).
The cell system used was HEK293 cells (ATCC, USA) (DMEM/F12, 10% FCS, 2 mM L-Glutamine, PSG). The cells were transfected with an AKR1C3 expression plasmid (pCMV6-AC-AKR1C3, GenBank Accession No. NM 003739.4), harvested after 24 hours and subsequently frozen. For assays, the frozen cells were thawed in assay medium (DMEM/F12 w/o phenolred, 0.005% Tween, 10% FCS, 2 mM L-Glutamine, PSG). Cells were seeded at 2500 cells/well into 384-well low volume or 1536-well plates (Greiner Bio-One, Frickenhausen, Germany) that contained 40-50 nl of a 100 fold concentrated compound solution in DMSO. After incubation at room temperature for 15 minutes, coumberon in PBS was added to a final concentration of 6×10^−6M. Following a 3 h incubation at room temperature, the reaction was stopped by lysing the cells with 0.4% Triton X-100. Coumberol fluorescence intensity was measured at 520 nm (excitation 380 nm) with a suitable measuring instrument (Pherastar, BMG). […] The data were normalized (transfected cells+coumberon=0% inhibition; no cells+coumberone=100% inhibition). Substances were usually tested at 11 different concentrations on the same microtiter plate in a range between 96.8 pM to 20 μM (20 μM, 5.9 μM, 1.7 μM, 0.5 μM, 0.15 μM, 44 nM, 12.9 nM, 3.8 nM, 1.1 nM, 0.3 nM and 96.8 pM). The dilutions were carried out on a 100 fold concentrated solution by serial dilution in duplicates. From the obtained data IC50 values were calculated by a 4-parameter fit.

| IC50 (AKR1C3 [1]) | IC50 (AKR1C3 [2]) | SMILES |
| --- | --- | --- |
| 0.0077 µM | 0.05 µM | COC(=O)CCCS(=O)(=O)c1ccc2c(c1)CC[C@@H]1[C@@H]2CC[C@]2(C)C(c3cncc(F)c3)=CC[C@@H]12 [Example 09, methyl 4-{[17-(5-fluoropyridin-3-yl)estra-1(10),2,4,16-tetraen-3-yl]sulfonyl}butanoate] |
| 0.0917 µM | 2.71 µM | CN(CCC(=O)O)S(=O)(=O)c1ccc2c(c1)CC[C@@H]1[C@@H]2CC[C@]2(C)C(c3cncnc3)=CC[C@@H]12 [Example 05, N-methyl-N-{[17-(pyrimidin-5-yl)estra-1(10),2,4,16-tetraen-3-yl]sulfonyl}-beta-alanine] |
| 0.0029 µM | 0.49 µM | C[C@]12CC[C@@H]3c4ccc(S(=O)(=O)CCCC(=O)O)cc4CC[C@H]3[C@@H]1CC=C2c1cncc(F)c1 [Example 10, 4-{[17-(5-fluoropyridin-3-yl)estra-1(10),2,4,16-tetraen-3-yl]sulfonyl}butanoic acid] |
| 0.0083 µM | 8.09 µM | C[C@]12CC[C@@H]3c4ccc(NC(=O)NCCC(=O)O)cc4CC[C@H]3[C@@H]1CC=C2c1cncc(F)c1 [Example 42, N-{[17-(5-fluoropyridin-3-yl)estra-1(10),2,4,16-tetraen-3-yl]carbamoyl}-beta-alanine] |
| 0.0018 µM | 0.98 µM | Cc1cc(C2=CC[C@H]3[C@@H]4CCc5cc(NC(=O)CCC(=O)O)ccc5[C@H]4CC[C@]23C)cnn1 [Example 45, 4-{[17-(6-methylpyridazin-4-yl)estra-1(10),2,4,16-tetraen-3-yl]amino}-4-oxobutanoic acid] |
| 0.0041 µM | 1.54 µM | CC(=O)NS(=O)(=O)CCC(=O)N(C)c1ccc2c(c1)CC[C@@H]1[C@@H]2CC[C@]2(C)C(c3cncc(F)c3)=CC[C@@H]12 [Example 31, 3-(acetylsulfamoyl)-N-[17-(5-fluoropyridin-3-yl)estra-1(10),2,4,16-tetraen-3-yl]-N-methylpropanamide] |
| 0.0032 µM | 0.03 µM | C[C@]12CC[C@@H]3c4ccc(S(=O)(=O)CCCC(N)=O)cc4CC[C@H]3[C@@H]1CC=C2c1cncc(F)c1 [Example 20, 4-{[17-(5-fluoropyridin-3-yl)estra-1(10),2,4,16-tetraen-3-yl]sulfonyl}butanamide] |
| 0.005 µM | 0.11 µM | C[C@]12CC[C@@H]3c4ccc(NC(=O)CCCO)cc4CC[C@H]3[C@@H]1CC=C2c1cncc(F)c1 [Example 27, N-[17-(5-fluoropyridin-3-yl)estra-1(10),2,4,16-tetraen-3-yl]-4-hydroxybutanamide] |
| 0.0097 µM | 0.54 µM | COc1cncc(C2=CC[C@H]3[C@@H]4CCc5cc(S(=O)(=O)CCCC(=O)O)ccc5[C@H]4CC[C@]23C)c1 [Example 16, 4-{[17-(5-methoxypyridin-3-yl)estra-1,3,5(10),16-tetraen-3-yl]sulfonyl}butanoic acid] |
| 0.003 µM | 5.1 µM | C[C@]12CC[C@@H]3c4ccc(NS(=O)(=O)CCC(=O)O)cc4CC[C@H]3[C@@H]1CC=C2c1cncc(F)c1 [Example 39, 3-{[17-(5-fluoropyridin-3-yl)estra-1(10),2,4,16-tetraen-3-yl]sulfamoyl}propanoic acid] |
| 0.0024 µM | 0.05 µM | CN(CCCO)S(=O)(=O)c1ccc2c(c1)CC[C@@H]1[C@@H]2CC[C@]2(C)C(c3cncc(F)c3)=CC[C@@H]12 [Example 03, 17-(5-fluoropyridin-3-yl)-N-(3-hydroxypropyl)-N-methylestra-1(10),2,4,16-tetraene-3-sulfonamide] |
| 0.0143 µM | 0.49 µM | C[C@]12CC[C@@H]3c4ccc(S(=O)(=O)CCCC(=O)O)cc4CC[C@H]3[C@@H]1CC=C2c1cncc(C(F)(F)F)c1 [Example 14, 4-({17-[5-(trifluoromethyl)pyridin-3-yl]estra-1(10),2,4,16-tetraen-3-yl}sulfonyl)butanoic acid] |
| 0.0032 µM | 5 µM | CC(=O)NS(=O)(=O)CCC(=O)Nc1ccc2c(c1)CC[C@@H]1[C@@H]2CC[C@]2(C)C(c3cncc(F)c3)=CC[C@@H]12 [Example 29, 3-(acetylsulfamoyl)-N-[17-(5-fluoropyridin-3-yl)estra-1(10),2,4,16-tetraen-3-yl]propanamide] |
| 0.0335 µM | 1.79 µM | Cc1ccncc1C1=CC[C@H]2[C@@H]3CCc4cc(S(=O)(=O)CCCC(=O)O)ccc4[C@H]3CC[C@]12C [Example 18, 4-{[17-(4-methylpyridin-3-yl)estra-1,3,5(10),16-tetraen-3-yl]sulfonyl}butanoic acid] |
| 0.0053 µM | 0.04 µM | C[C@]12CC[C@@H]3c4ccc(S(=O)(=O)CCCCO)cc4CC[C@H]3[C@@H]1CC=C2c1cncc(F)c1 [Example 21, 4-{[17-(5-fluoropyridin-3-yl)estra-1(10),2,4,16-tetraen-3-yl]sulfonyl}butan-1-ol] |
| 0.313 µM | 8.34 µM | C[C@]12CC[C@@H]3c4ccc(NC(=O)CCC(=O)O)cc4CC[C@H]3[C@@H]1CC=C2c1cncnc1 [Example 25, 4-oxo-4-{[17-(pyrimidin-5-yl)estra-1(10),2,4,16-tetraen-3-yl]amino}butanoic acid] |
| 0.0032 µM | 0.21 µM | CN(C(=O)CCC(=O)O)c1ccc2c(c1)CC[C@@H]1[C@@H]2CC[C@]2(C)C(c3cncc(F)c3)=CC[C@@H]12 [Example 35, 4-{[17-(5-fluoropyridin-3-yl)estra-1(10),2,4,16-tetraen-3-yl](methyl)amino}-4-oxobutanoic acid] |
